Measured values as given in patent US20210392895A1, “NOVEL OXADIAZOLES” (PI INDUSTRIES LIMITED, priority 2018, published 2021).
Counter-ions that a name gives are not always drawn.

Assays:
[1] = test system: Alternaria solani; assay: Alternaria solani (early blight of tomato/potato) in vitro test, radial growth on Potato Dextrose Agar; format: cell-based; details: 168 h, compared to the untreated check, radial growth after seven days, read-out: control
[2] = test system: Phakopsora pachyrhizi; assay: Phakopsora pachyrhizi test in soybean (greenhouse, preventive activity, disease severity rating); format: in vivo; details: preventive spray on soybean, compared to the untreated check
In short: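 Greenhouse-raised young soybean plants sprayed with compound at stated rates, then inoculated one day later with 2.1×10^6 P. pachyrhizi spores and held at 25° C, 90% RH. Disease severity (0-100%) rated visually 3, 7, 10 and 15 days after application; % control calculated versus untreated plants.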

[3] = test system: Pyricularia oryzae; assay: microbe, parasite or virus in culture; format: cell-based; details: 168 h, read-out: control
[4] = test system: Rhizoctonia solani; assay: Rhizoctonia solani (rice sheath blight/potato black scurf) in vitro test, radial growth on Potato Dextrose Agar; format: cell-based; details: 168 h, compared to the untreated check, radial growth after seven days, read-out: control
[5] = test system: Botrytis cinerea; assay: Botrytis cinerea (gray mold) in vitro test, radial growth on Potato Dextrose Agar; format: cell-based; details: 168 h, compared to the untreated check, radial growth after seven days, read-out: control
[6] = test system: Colletotrichum capsici; assay: Colletotrichum capsici (anthracnose) in vitro test, radial growth on Potato Dextrose Agar; details: Colletotrichum truncatum, 168 h, read-out: control
Description: Compounds were dissolved in 0.3% DMSO and then added to Potato Dextrose Agar medium just prior to dispensing it into petri dishes. 5 mL medium with compound in the desired concentration was dispensed into 60 mm sterile petri-plates. After solidification, each plate was seeded with a 5 mm size mycelial disc taken form the periphery of an actively growing virulent culture plate. Plates were incubated in growth chambers at 25° C. temperature and 60% relative humidity for seven days and radial growth was measured.

[7] = test system: Corynespora cassicola; assay: Corynespora cassicola (leaf spot of tomato) in vitro test, radial growth on Potato Dextrose Agar; format: cell-based; details: 168 h, compared to the untreated check, radial growth after seven days, read-out: control

Row | SMILES | inhibition of growth at 300 ppm [1] | pest or weed control at 500 ppm [2] | inhibition of growth at 300 ppm [3] | inhibition of growth at 300 ppm [4] | inhibition of growth at 300 ppm [5] | inhibition of growth at 300 ppm [6] | inhibition of growth at 300 ppm [7]
1 | COc1cccc(C(=O)N2CC[C@H](Oc3ccc(-c4noc(C(F)(F)F)n4)cc3)C2)c1 [Compound 1, (S)-(3-methoxyphenyl)(3-(4-(5-(trifluoromethyl)-1,2,4-oxadiazol-3-yl)phenoxy)pyrrolidin-1-yl)methanone] | > 70% | > 70% |  |  |  |  | 
2 | O=C(c1ccccc1F)N1CC[C@H](Oc2ccc(-c3noc(C(F)(F)F)n3)cc2)C1 [Compound 6, (S)-(2-fluorophenyl)(3-(4-(5-(trifluoromethyl)-1,2,4-oxadiazol-3-yl)phenoxy)pyrrolidin-1-yl)methanone] | > 70% |  |  |  |  |  | 
3 | COc1cccc(C(=O)N2CC(Oc3ccc(-c4noc(C(F)(F)F)n4)cc3)C2)c1 [Compound 17, (3-methoxyphenyl)(3-(4-(5-(trifluoromethyl)-1,2,4-oxadiazol-3-yl)phenoxy)azetidin-1-yl)methanone] |  | > 70% | > 70% |  |  |  | 
4 | COc1cccc(CC(=O)N2CC[C@H](Oc3ccc(-c4noc(C(F)(F)F)n4)cc3)C2)c1 [Compound 24, (S)-2-(3-methoxyphenyl)-1-(3-(4-(5-(trifluoromethyl)-1,2,4-oxadiazol-3-yl)phenoxy)pyrrolidin-1-yl)ethan-1-one] | > 70% | > 70% |  |  |  |  | 
5 | O=C(c1ccccc1F)N1CC[C@H](Oc2ccc(-c3noc(C(F)(F)F)n3)cn2)C1 [Compound 45, (S)-(2-fluorophenyl)(3-((5-(5-(trifluoromethyl)-1,2,4-oxadiazol-3-yl)pyridin-2-yl)oxy)pyrrolidin-1-yl)methanone] |  | > 70% | > 70% |  |  |  | 
6 | O=C(c1cccnc1)N1CC[C@H](Oc2ccc(-c3noc(C(F)(F)F)n3)cn2)C1 [Compound 48, (S)-pyridin-3-yl(3-((5-(5-(trifluoromethyl)-1,2,4-oxadiazol-3-yl)pyridin-2-yl)oxy)pyrrolidin-1-yl)methanone] | > 70% | > 70% | > 70% | > 70% | > 70% |  | 
7 | O=C(c1ccncc1)N1CC[C@H](Oc2ccc(-c3noc(C(F)(F)F)n3)cn2)C1 [Compound 49, (S)-pyridin-4-yl(3-((5-(5-(trifluoromethyl)-1,2,4-oxadiazol-3-yl)pyridin-2-yl)oxy)pyrrolidin-1-yl)methanone] | > 70% | > 70% | > 70% | > 70% |  | > 70% | 
8 | COc1ccc(C(=O)N2CC[C@H](Oc3ccc(-c4noc(C(F)(F)F)n4)cc3)C2)cn1 [Compound 56, (S)-(6-methoxypyridin-3-yl)(3-(4-(5-(trifluoromethyl)-1,2,4-oxadiazol-3-yl)phenoxy)pyrrolidin-1-yl)methanone] |  | > 70% | > 70% |  |  |  | 
9 | O=C(c1cccnc1)N1CC[C@H](Oc2ccc(-c3noc(C(F)(F)F)n3)cc2F)C1 [Compound 58, (S)-(3-(2-fluoro-4-(5-(trifluoromethyl)-1,2,4-oxadiazol-3-yl)phenoxy)pyrrolidin-1-yl)(pyridin-3-yl)methanone] | > 70% |  | > 70% |  |  |  | 
10 | O=C(c1ccncc1)N1CC[C@H](Oc2ccc(-c3noc(C(F)(F)F)n3)cc2F)C1 [Compound 59, (S)-(3-(2-fluoro-4-(5-(trifluoromethyl)-1,2,4-oxadiazol-3-yl)phenoxy)pyrrolidin-1-yl)(pyridin-4-yl)methanone] | > 70% | > 70% | > 70% | > 70% | > 70% | > 70% | 
11 | CC(C)(C)OC(=O)N1CC[C@H](Oc2ccc(-c3noc(C(F)(F)F)n3)cc2F)C1 [Compound 60, tert-butyl-(S)-3-(2-fluoro-4-(5-(trifluoromethyl)-1,2,4-oxadiazol-3-yl)phenoxy)pyrrolidine-1-carboxylate] |  | > 70% | > 70% |  |  |  | 
12 | CCS(=O)(=O)N1CC[C@H](Oc2ccc(-c3noc(C(F)(F)F)n3)cc2F)C1 [Compound 61, (S)-3-(4-((1-(ethylsulfonyl)pyrrolidin-3-yl)oxy)-3-fluorophenyl)-5-(trifluoromethyl)-1,2,4-oxadiazole] |  | > 70% | > 70% |  |  |  | 
13 | CC(=O)N1CC[C@H](Oc2ccc(-c3noc(C(F)(F)F)n3)c(F)c2)C1 [Compound 68, (S)-1-(3-(3-fluoro-4-(5-(trifluoromethyl)-1,2,4-oxadiazol-3-yl)phenoxy)pyrrolidin-1-yl)ethan-1-one] | > 70% |  | > 70% | > 70% | > 70% | > 70% | 
14 | FC(F)(F)c1nc(-c2ccc(OC3CCNCC3)cc2)no1 [Compound 85, 3-(4-(piperidin-4-yloxy)phenyl)-5-(trifluoromethyl)-1,2,4-oxadiazole Hydrochloride] | > 70% | > 70% | > 70% | > 70% |  |  | > 70%
15 | FC(F)(F)c1nc(-c2ccc(N(c3ccc(-c4noc(C(F)(F)F)n4)cc3)C3CNC3)cc2)no1 [Compound 86, N,N-bis(4-(5-(trifluoromethyl)-1,2,4-oxadiazol-3-yl)phenyl)azetidin-3-amine Hydrochloride] | > 70% | > 70% |  |  |  |  | 
16 | CN(c1ccc(-c2noc(C(F)(F)F)n2)cc1)C1CN(C(=O)c2ccccc2)C1 [Compound 87, (3-(methyl(4-(5-(trifluoromethyl)-1,2,4-oxadiazol-3-yl)phenyl)amino)azetidin-1-yl)(phenyl)methanone] |  | > 70% |  |  |  | > 70% | 
17 | CN(c1ccc(-c2noc(C(F)(F)F)n2)cc1)C1CN(C(=O)c2cccc(F)c2)C1 [Compound 96, (3-fluorophenyl)(3-(methyl(4-(5-(trifluoromethyl)-1,2,4-oxadiazol-3-yl)phenyl)amino)azetidin-1-yl)methanone] | > 70% |  | > 70% |  |  | > 70% | 
18 | Cc1ccc(C(=O)N2CC(N(C)c3ccc(-c4noc(C(F)(F)F)n4)cc3)C2)cc1 [Compound 97, (3-(methyl(4-(5-(trifluoromethyl)-1,2,4-oxadiazol-3-yl)phenyl)amino)azetidin-1-yl)(p-tolyl)methanone] | > 70% |  | > 70% |  |  |  | 
19 | COc1ccc(C(=O)N2CC(N(C)c3ccc(-c4noc(C(F)(F)F)n4)cc3)C2)cc1 [Compound 98, (4-methoxyphenyl)(3-(methyl(4-(5-(trifluoromethyl)-1,2,4-oxadiazol-3-yl)phenyl)amino)azetidin-1-yl)methanone] | > 70% |  | > 70% |  |  |  | 
20 | CN(c1ccc(-c2noc(C(F)(F)F)n2)cc1)C1CN(C(=O)Cc2ccccc2)C1 [Compound 99, 1-(3-(methyl(4-(5-(trifluoromethyl)-1,2,4-oxadiazol-3-yl)phenyl)amino)azetidin-1-yl)-2-phenylethan-1-one] | > 70% |  | > 70% |  |  |  | 
21 | O=C(c1ccccc1F)N1CCC(Oc2cccc(-c3noc(C(F)(F)F)n3)c2)C1 (centres unmarked) [Compound 132, (2-fluorophenyl)(3-(3-(5-(trifluoromethyl)-1,2,4-oxadiazol-3-yl)phenoxy)pyrrolidin-1-yl)methanone] | > 70% |  |  |  |  |  | 
22 | O=C(c1cccc(F)c1)N1CCC(Oc2cccc(-c3noc(C(F)(F)F)n3)c2)C1 (centres unmarked) [Compound 133, (3-fluorophenyl)(3-(3-(5-(trifluoromethyl)-1,2,4-oxadiazol-3-yl)phenoxy)pyrrolidin-1-yl)methanone] | > 70% |  | > 70% |  |  |  | 
23 | O=C(c1ccc(F)cc1)N1CCC(Oc2cccc(-c3noc(C(F)(F)F)n3)c2)C1 (centres unmarked) [Compound 134, (4-fluorophenyl)(3-(3-(5-(trifluoromethyl)-1,2,4-oxadiazol-3-yl)phenoxy)pyrrolidin-1-yl)methanone] | > 70% |  | > 70% |  |  |  | 
24 | CC(C)S(=O)(=O)N1CC[C@H](Oc2ccc(-c3noc(C(F)(F)F)n3)cc2)C1 [Compound 136, (S)-3-(4-((1-(isopropylsulfonyl)pyrrolidin-3-yl)oxy)phenyl)-5-(trifluoromethyl)-1,2,4-oxadiazole] |  |  |  |  |  | > 70% | 
25 | FC(F)(F)c1nc(-c2ccc(O[C@H]3CCN(Cc4ccccc4)C3)cc2)no1 [Compound 137, (S)-3-(4-((1-benzylpyrrolidin-3-yl)oxy)phenyl)-5-(trifluoromethyl)-1,2,4-oxadiazole] | > 70% |  | > 70% | > 70% |  |  | > 70%
26 | FC(F)(F)c1nc(-c2ccc(S[C@@H]3CCNC3)cc2)no1 [Compound 158, (R)-3-(4-(pyrrolidin-3-ylthio)phenyl)-5-(trifluoromethyl)-1,2,4-oxadiazole Hydrochloride] | > 70% |  |  |  |  |  | > 70%
27 | O=C(c1cscn1)N1CC[C@H](Oc2ccc(-c3noc(C(F)(F)F)n3)cn2)C1 [Compound 200, (S)-thiazol-4-yl(3-((5-(5-(trifluoromethyl)-1,2,4-oxadiazol-3-yl)pyridin-2-yl)oxy)pyrrolidin-1-yl)methanone] | > 70% |  | > 70% |  |  | > 70% | 
